Assay results as given in the supplement of paper PMC10307832.

Tests used:
Experiment in all cases: relative viability (nuclei count vs DMSO), 5 days (fraction); higher = more cells survive
Shikonin + Alpelisib = compound: CC(C)=CC[C@@H](O)C1=CC(=O)c2c(O)ccc(O)c2C1=O [Shikonin] + Cc1nc(NC(=O)N2CCC[C@H]2C(N)=O)sc1-c1ccnc(C(C)(C)C(F)(F)F)c1 [Alpelisib] (partner 2 µM)
Procedure, shortened: (§1)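 The day after seeding in 1536-well plates, lung cancer cell lines were treated by pin tool with a single drug, or with a fixed anchor-drug dose together with five library-drug doses (not always all listed) in √10 steps. After 5 days, a combined fix-and-stain solution (final 0.05% Triton X-100, 1% formaldehyde, 1 ug/ml Hoechst) was added. Nuclei counted on 4× images gave relative viability as treated counts over vehicle counts, reported as the median of duplicate plates.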

Shikonin + Decitabine = compound: CC(C)=CC[C@@H](O)C1=CC(=O)c2c(O)ccc(O)c2C1=O [Shikonin] + Nc1ncn([C@H]2C[C@H](O)[C@@H](CO)O2)c(=O)n1 [Decitabine] (partner 2 µM)
Procedure, shortened: as §1

[1] = compound: CC(C)N(CCCNC(=O)Nc1ccc(C(C)(C)C)cc1)C[C@H]1O[C@@H](n2ccc3c(N)ncnc32)[C@H](O)[C@@H]1O + CS(=O)(=O)CCNCc1ccc(-c2ccc3ncnc(Nc4ccc(OCc5cccc(F)c5)c(Cl)c4)c3c2)o1 [Lapatinib] (partner 2 µM)
Procedure, shortened: as §1

[2] = compound: CC(C)N(CCCNC(=O)Nc1ccc(C(C)(C)C)cc1)C[C@H]1O[C@@H](n2ccc3c(N)ncnc32)[C@H](O)[C@@H]1O + Cc1nc(NC(=O)N2CCC[C@H]2C(N)=O)sc1-c1ccnc(C(C)(C)C(F)(F)F)c1 [Alpelisib] (partner 2 µM)
Procedure, shortened: as §1

Cell Line	relative viability (Shikonin + Alpelisib; first compound 0.01 µM)	relative viability (Shikonin + Alpelisib; first compound 0.1 µM)	relative viability (Shikonin + Alpelisib; first compound 0.3162 µM)	relative viability (Shikonin + Alpelisib; first compound 1 µM)	relative viability (Shikonin + Decitabine; first compound 0.01 µM)	relative viability (Shikonin + Decitabine; first compound 0.1 µM)	relative viability (Shikonin + Decitabine; first compound 0.3162 µM)	relative viability (Shikonin + Decitabine; first compound 1 µM)	relative viability ([1]; first compound 0.08 µM)	relative viability ([1]; first compound 0.253 µM)	relative viability ([1]; first compound 0.8 µM)	relative viability ([1]; first compound 2.53 µM)	relative viability ([1]; first compound 8 µM)	relative viability ([2]; first compound 0.08 µM)	relative viability ([2]; first compound 0.253 µM)	relative viability ([2]; first compound 0.8 µM)	relative viability ([2]; first compound 2.53 µM)	relative viability ([2]; first compound 8 µM)
NCI-H358	0.825	0.807	0.924	0.707	0.178	0.23	0.218	0.19	0.433	0.443	0.427	0.357	0.393	0.78	0.823	0.901	0.87	0.917
NCI-H460	0.522	0.841	0.618	0.569	0.446	0.685	0.504	0.516	0.835	0.983	0.829	0.971	0.855	0.378	0.582	0.442	0.301	0.396
NCI-H520		1.25	0.902	0.961	0.47	0.598	0.454	0.401	0.712	0.58	0.655	0.845	0.811	0.796	0.879	0.758	0.789	0.861
NCI-H596	0.464	0.481	0.543	0.504	1.08	1.03	0.981	1.25	1.17	0.946	0.971	1.08	1.06	0.567	0.42	0.54	0.434	0.482
NCI-H647	1.21	1.23	0.926	1.14	0.364	0.504	0.346	0.328	0.961		0.856	0.983	0.933	1.14		1.08	1.05	1.25
NCI-H650	1.3		1.13	1.08	0.295	0.314	0.334	0.27	0.921	0.889	0.775	0.791	0.871	0.984	1.09	1.21	1.13	0.958
NCI-H661	0.676	0.718	0.893	0.792	0.51	0.552	0.572	0.529	0.441	0.467	0.519	0.404	0.523	0.692	0.61	1.03	0.63	0.645
NCI-H727	0.447	0.547	0.62	0.405	0.893	1.02	0.927	0.883	0.922	0.821	0.804	0.973	0.686	0.448	0.511	0.612	0.547	0.673
NCI-H838	1.02	1.18	1.04	1.21	0.476	0.413	0.442	0.468	0.869	0.521	0.953	0.938	0.916	0.983	0.804	1.04	1.03	0.99
NCI-H1355	0.819	0.823	0.943	0.927	0.339	0.4	0.38	0.337	0.94	0.975		1	0.857	0.768	0.809		0.772	0.804
NCI-H1395	1.14	1.16	0.973	1	0.719	0.796	0.692	0.71	1.15	1.02		0.94	0.904	1.11	0.996		1.21	1.05
NCI-H1437	0.987	1.14	0.987	1.1	0.607	0.594	0.524	0.536	0.703	0.77	0.773	0.722	0.715	0.9	1.01	1.1	0.903	0.945
NCI-H1651	0.921	0.98	1	1.07	0.621	0.656	0.66	0.641	0.724	0.727	0.586	0.779	0.93	0.882	0.98	0.92	0.935	1.04
NCI-H1666	0.915	0.964	1.07	0.856	0.668	0.779	0.82	0.734	0.618	0.613	0.427	0.568	0.486	0.888	0.825	0.895	0.943	1.02
NCI-H1734	0.7	0.722	0.788	0.663	0.475	0.566	0.571	0.474	0.987	1.06	0.976	1.13	0.995	0.665	0.665	0.636	0.723	0.713
NCI-H1755	1.02	0.946	1.07	0.97	0.735	0.768	0.761	0.712	1.02	1.06	0.841	0.979	0.944	0.891	0.929	0.905	0.882	0.84
NCI-H1792	0.776	0.557	0.786	0.727	0.567	0.553	0.644	0.681	0.878	0.851	0.839	0.831	0.902	0.671	0.497	0.688	0.696	0.668
NCI-H1793	0.863	0.779	0.754	0.722	0.513	0.565	0.451	0.456	0.607		0.554	0.599	0.636	0.554		0.715	0.527	0.669

Cell Line	relative viability (Shikonin + Alpelisib; first compound 0.01 µM)	relative viability (Shikonin + Alpelisib; first compound 0.1 µM)	relative viability (Shikonin + Alpelisib; first compound 0.3162 µM)	relative viability (Shikonin + Alpelisib; first compound 1 µM)	relative viability (Shikonin + Decitabine; first compound 0.01 µM)	relative viability (Shikonin + Decitabine; first compound 0.1 µM)	relative viability (Shikonin + Decitabine; first compound 0.3162 µM)	relative viability (Shikonin + Decitabine; first compound 1 µM)	relative viability ([1]; first compound 0.08 µM)	relative viability ([1]; first compound 0.253 µM)	relative viability ([1]; first compound 0.8 µM)	relative viability ([1]; first compound 2.53 µM)	relative viability ([1]; first compound 8 µM)	relative viability ([2]; first compound 0.08 µM)	relative viability ([2]; first compound 0.253 µM)	relative viability ([2]; first compound 0.8 µM)	relative viability ([2]; first compound 2.53 µM)	relative viability ([2]; first compound 8 µM)
NCI-H1915	1.09	1.12	1.13	1.04	0.271	0.286	0.268	0.258	1.02	0.981	0.783	0.925	0.87	1.07	1.05	0.974	1.05	0.968
NCI-H1944	0.747	0.936	0.992	0.909	0.464	0.446	0.443	0.435	0.764	0.88	0.652	0.847	0.795	0.769	0.806	0.774	0.852	0.82
NCI-H1975	0.676	0.712	0.702	0.538	0.377	0.392	0.36	0.381	0.752	0.805	0.473	0.752	0.656	0.555	0.529	0.586	0.611	0.567
NCI-H1993		0.662	0.661	0.699	0.668	0.592	0.632	0.555	0.857	0.734	0.769	0.819	0.775	0.696	0.786	0.619	0.675	0.751
NCI-H2009	1.31	1.24	1.22	0.802	0.335	0.399	0.399	0.222	1.01	0.818	0.716	0.888	0.792	1.19	1.15	1.22	1.22	1.18
NCI-H2023	0.579	0.709	0.589	0.598	0.201	0.251	0.236	0.225	0.735	0.425	0.752	0.787	0.592	0.532	0.619	0.619	0.68	0.622
NCI-H2085	0.986	0.913	0.905	0.685	0.528	0.515	0.57	0.532	0.782	0.681	0.747	0.858	0.798	0.969	0.978	1.05	0.972	0.913
NCI-H2087	1.15	0.967	1.12	1.04	0.283	0.263	0.278	0.294	1.03	1.16	0.825	1.01	0.996	1.04	1.21	1.14	1.24	1.11
NCI-H2126	0.764	0.843	0.786	0.763	0.593	0.589	0.628	0.559	0.721	0.735	0.681	0.718	0.742	0.734	0.712	0.78	0.783	0.722
NCI-H2170	0.824	0.672	0.92	0.793	0.481	0.449	0.496	0.503	0.248	0.26	0.256	0.262	0.266	0.736	0.762	0.82	0.815	0.908
NCI-H2347	0.992	0.99	0.962	1.03	0.646	0.623	0.659	0.597	0.965	0.999	0.654	0.968	0.934	0.882	0.904	0.935	1.1	1
NCI-H2405	0.742	0.798	0.864	0.761	0.827	0.889	0.762	0.702	1.14		0.811	1.13	1.09	0.858		0.789	0.89	0.795
NCI-H3122	0.752	0.823	0.844	0.79	0.485	0.467	0.443	0.458	1.09	0.938	1.02	1.02	1.03	0.808	0.846	0.797	0.858	0.701
PC-3 [JPC-3]	1.04	1.11	1.05	1.08	0.765	0.896	0.843	0.82	0.433	0.478	0.419	0.467	0.462	1.04	1	0.896	1	1.01
PC-14	0.933	1.01	1.07	1.07	0.216	0.278	0.413	0.161	0.287	0.284	0.355	0.332	0.316	0.883	0.818	0.988	0.964	0.794
RERF-LC-KJ	0.78	0.732	0.798	0.787	0.782	0.703	0.636	0.653	0.894	0.841	0.861	0.911	0.829	0.826	0.757	0.868	0.838	0.815
SK-LU-1	1	1.09	0.965	0.8	0.631	0.688	0.59	0.635	0.892	0.887	0.989	1.13	0.748	1.22	1.15	1.28	1.16	1.01
SK-MES-1	0.873	1.04	0.909	0.594	0.323	0.417	0.371	0.426	0.501	0.461	0.455	0.491	0.414	0.992	0.897	0.754	0.945	0.838
